Experimental data reported in patent US6355799B1, “Substituted benzene compounds, process for their preparation, and herbicidal and defoliant compositions containing them” (ISK Americas Incorporated, priority 1997, dated 2002).

Experiments:
Assay type in all cases: in vivo
[1] = system: redroot pigweed (Amaranthus retroflexus, AMARE); experiment: Pre-emerge test, greenhouse herbicide activity screening; details: pre-emerge, 14 days after application, scale 0-100
How it was run: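 Herbicidal damage is scored 0 (none) to 100 (complete plant death) two weeks after a simulated field spray. Rates span 15–1000 g ai/ha, delivered in acetone at 187 l/ha. For post-emergence treatments, plants have 2–3 leaves and the spray carries 0.25% v/v non-ionic surfactant.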

[2] = system: barnyardgrass (Echinochloa crus-galli, ECHCG); experiment: as above; details: pre-emerge, 14 days after application, scale 0-100
How it was run: (§1)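 Rating: 0–100 visual injury, 14 DAA. Application: acetone, 187 l/ha, 15–1000 g ai/ha, flat-fan track sprayer with nozzle 40–45 cm above soil or canopy. Post-emerge runs used 0.25% v/v surfactant on 2–3 leaf plants.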

[3] = system: green foxtail (Setaria viridis, SETVI); experiment: as above; details: pre-emerge, 14 days after application, scale 0-100
How it was run: as §1

[4] = system: ivyleaf morningglory (Ipomoea hederacea, IPOHE); experiment: as above; details: pre-emerge, 14 days after application, scale 0-100
How it was run: as §1

[5] = system: johnsongrass (Sorghum halepense, SORHA); experiment: as above; details: pre-emerge, 14 days after application, scale 0-100
How it was run: as §1

[6] = system: lambsquarters (Chenopodium album, CHEAL); experiment: as above; details: pre-emerge, 14 days after application, scale 0-100
How it was run: as §1

[7] = system: large crabgrass (Digitaria sanguinalis, DIGSA); experiment: as above; details: pre-emerge, 14 days after application, scale 0-100
How it was run: as §1

[8] = system: sicklepod (Cassia obtusifolia, CASOB); experiment: as above; details: pre-emerge, 14 days after application, scale 0-100
How it was run: as §1

[9] = system: velvetleaf (Abutilon theophrasti, ABUTH); experiment: as above; details: pre-emerge, 14 days after application, scale 0-100
How it was run: as §1

[10] = system: field corn (Zea mays L., var. Dekalb 535, CORN); experiment: Pre-emerge test, crop safety; details: pre-emerge, 14 days after application, scale 0-100
How it was run: (§2)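 Visual ratings on a 0-100 scale (0 no damage, 100 all plants dead) were taken at 14 days after treatment. Rates of 15-1000 g ai/ha in acetone, 187 l/ha, were sprayed onto soil one day after planting (pre-emerge) or onto 2-3 leaf plants with 0.25% v/v surfactant (post-emerge).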

[11] = system: upland rice (Oryza sp., var. Tebonnet, RICE); experiment: Pre-emerge test, crop safety; details: pre-emerge, 14 days after application, scale 0-100
How it was run: as §2

[12] = system: barnyardgrass (Echinochloa crus-galli, ECHCG); experiment: Post-emerge test, greenhouse herbicide activity screening; details: post-emerge, 14 days after application, rating scale 0-100
How it was run: as §1

[13] = system: common ragweed (Ambrosia artemisizfolia L., AMBEL); experiment: as above; details: post-emerge, 14 days after application, rating scale 0-100
How it was run: as §1

[14] = system: green foxtail (Setaria viridis, SETVI); experiment: as above; details: post-emerge, 14 days after application, rating scale 0-100
How it was run: as §1

[15] = system: ivyleaf morningglory (Ipomoea hederacea, IPOHE); experiment: as above; details: post-emerge, 14 days after application, rating scale 0-100
How it was run: as §1

[16] = system: johnsongrass (Sorghum halepense, SORHA); experiment: as above; details: post-emerge, 14 days after application, rating scale 0-100
How it was run: as §1

[17] = system: lambsquarters (Chenopodium album, CHEAL); experiment: as above; details: post-emerge, 14 days after application, rating scale 0-100
How it was run: as §1

[18] = system: large crabgrass (Digitaria sanguinalis, DIGSA); experiment: as above; details: post-emerge, 14 days after application, rating scale 0-100
How it was run: as §1

[19] = system: redroot pigweed (Amaranthus retroflexus, AMARE); experiment: as above; details: post-emerge, 14 days after application, rating scale 0-100
How it was run: as §1

[20] = system: sicklepod (Cassia obtusifolia, CASOB); experiment: as above; details: post-emerge, 14 days after application, rating scale 0-100
How it was run: as §1

[21] = system: velvetleaf (Abutilon theophrasti, ABUTH); experiment: as above; details: post-emerge, 14 days after application, rating scale 0-100
How it was run: as §1

[22] = system: field corn (Zea mays L., var. Dekalb 535, CORN); experiment: Post-emerge test, crop safety; details: post-emerge, 14 days after application, rating scale 0-100
How it was run: (§3)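 Plants grown in 10 cm pots of sandy loam mix received acetone-dissolved compounds through a moving flat-fan nozzle. Doses ranged from 15 to 1000 g ai/ha. Pre-emerge pots were seeded one day earlier, post-emerge pots 8–21 days earlier. Fourteen days on, each pot was graded 0–100 for damage.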

[23] = system: upland rice (Oryza sp., var. Tebonnet, RICE); experiment: Post-emerge test, crop safety; details: post-emerge, 14 days after application, rating scale 0-100
How it was run: as §3

COc1c(Cl)cc(F)c(-n2c(=O)cc(C(F)(F)F)n(C)c2=O)c1NC(=O)CSC(C)C [2-173]
phytotoxicity rating AMARE ([1]; 63 g ai/ha): 30
phytotoxicity rating AMARE ([1]; 250 g ai/ha): 100
phytotoxicity rating ECHCG ([2]; 63 g ai/ha): 0
phytotoxicity rating ECHCG ([2]; 250 g ai/ha): 20
phytotoxicity rating SETVI ([3]; 63 g ai/ha): 40
phytotoxicity rating SETVI ([3]; 250 g ai/ha): 80
phytotoxicity rating IPOHE ([4]; 63 g ai/ha): 0
phytotoxicity rating IPOHE ([4]; 250 g ai/ha): 40
phytotoxicity rating SORHA ([5]; 63 g ai/ha): 0
phytotoxicity rating SORHA ([5]; 250 g ai/ha): 10
phytotoxicity rating CHEAL ([6]; 63 g ai/ha): 90
phytotoxicity rating CHEAL ([6]; 250 g ai/ha): 100
phytotoxicity rating DIGSA ([7]; 63 g ai/ha): 30
phytotoxicity rating DIGSA ([7]; 250 g ai/ha): 80
phytotoxicity rating CASOB ([8]; 63 g ai/ha): 30
phytotoxicity rating CASOB ([8]; 250 g ai/ha): 70
phytotoxicity rating ABUTH ([9]; 63 g ai/ha): 95
phytotoxicity rating ABUTH ([9]; 250 g ai/ha): 100
phytotoxicity rating CORN (crop damage) ([10]; 63 g ai/ha): 0
phytotoxicity rating CORN (crop damage) ([10]; 250 g ai/ha): 20
phytotoxicity rating RICE (crop damage) ([11]; 63 g ai/ha): 0
phytotoxicity rating RICE (crop damage) ([11]; 250 g ai/ha): 50
ECHCG phytotoxicity rating ([12]; 63 g ai/ha): 0
ECHCG phytotoxicity rating ([12]; 250 g ai/ha): 0
AMBEL phytotoxicity rating ([13]; 63 g ai/ha): 30
AMBEL phytotoxicity rating ([13]; 250 g ai/ha): 50
SETVI phytotoxicity rating ([14]; 63 g ai/ha): 0
SETVI phytotoxicity rating ([14]; 250 g ai/ha): 0
IPOHE phytotoxicity rating ([15]; 63 g ai/ha): 100
IPOHE phytotoxicity rating ([15]; 250 g ai/ha): 80
SORHA phytotoxicity rating ([16]; 63 g ai/ha): 0
SORHA phytotoxicity rating ([16]; 250 g ai/ha): 0
CHEAL phytotoxicity rating ([17]; 63 g ai/ha): 40
CHEAL phytotoxicity rating ([17]; 250 g ai/ha): 65
DIGSA phytotoxicity rating ([18]; 63 g ai/ha): 0
DIGSA phytotoxicity rating ([18]; 250 g ai/ha): 0
AMARE phytotoxicity rating ([19]; 63 g ai/ha): 50
AMARE phytotoxicity rating ([19]; 250 g ai/ha): 50
CASOB phytotoxicity rating ([20]; 63 g ai/ha): 50
CASOB phytotoxicity rating ([20]; 250 g ai/ha): 70
ABUTH phytotoxicity rating ([21]; 63 g ai/ha): 60
ABUTH phytotoxicity rating ([21]; 250 g ai/ha): 100
CORN phytotoxicity rating (crop damage) ([22]; 63 g ai/ha): 0
CORN phytotoxicity rating (crop damage) ([22]; 250 g ai/ha): 25
RICE phytotoxicity rating (crop damage) ([23]; 63 g ai/ha): 0
RICE phytotoxicity rating (crop damage) ([23]; 250 g ai/ha): 10
